Results on five compounds are retold here after US5002931A, “GRF analogs VII” (The Salk Institute for Biological Studies, priority 1987, dated 1991).

Square brackets hold non-standard residues; d marks the D form. Ends that are not written are not given here. Peptide text beside a SMILES is read from it. NMeY = CN[C@@H](Cc1ccc(O)cc1)C(=O)O; Nle = CCCC[C@H](N)C(=O)O

The assay relates to cells of rat pituitary glands. Briefly: in vitro assay of growth hormone release from cultured rat pituitary cells, GH measured by radioimmunoassay. The conditions noted are these: release of GH at equimolar concentrations, side-by-side with synthetic hpGRF(1-40)-OH standard = 100%; incubation 3 to 4 hours. It is filed as cell-based. How it is done: To determine the relative effectiveness of certain representative synthetic peptides to promote the release of growth hormone, in vitro assays are carried out using synthetic hpGRF(1-40)-OH as a standard in side-by-side comparison with equimolar concentrations of the representative analogs which have been synthesized. Cultures are used which include cells of rat pituitary glands removed some three to five days previously. Such cultures are considered optimal for the secretion of growth hormone and are used for the comparative testing, in the general manner described in Vale et al. Endocrinoloqy, 91, 562-572 (1972) and as more particularly described in Vale et al. Endocrinology, 112, 1553-1555 (1983). Incubation with the substance to be tested is carried out for 3 to 4 hours, and aliquots of the culture medium are removed and processed to measure their contents in immunoreactive GH(ir GH) by a well-characterized radioimmunoassay.
In turn, `CCCC[C@H](NC(=O)[C@@H](NC(=O)[C@H](CC(=O)O)NC(=O)[C@H](CCC(N)=O)NC(=O)[C@H](CC(C)C)NC(=O)[C@H](CC(C)C)NC(=O)[C@H](CCCCN)NC(=O)[C@H](CCCNC(=N)N)NC(=O)[C@H](C)NC(=O)[C@H](CO)NC(=O)[C@H](CC(C)C)NC(=O)[C@H](CCC(N)=O)NC(=O)[C@H](C)NC(=O)[C@H](CC(C)C)NC(=O)[C@@H](NC(=O)[C@H](CCCCN)NC(=O)[C@H](CCCNC(=N)N)NC(=O)[C@H](Cc1ccc(O)cc1)NC(=O)[C@H](CO)NC(=O)[C@H](CCCCN)NC(=O)[C@@H](NC(=O)[C@H](Cc1ccccc1)NC(=O)[C@@H](NC(=O)[C@H](C)NC(=O)[C@H](CC(=O)O)NC(=O)[C@H](C)NC(=O)[C@H](Cc1ccc(O)cc1)NC)[C@@H](C)CC)[C@@H](C)O)C(C)C)[C@@H](C)CC)C(=O)N[C@@H](CC(N)=O)C(=O)N[C@@H](CCCNC(=N)N)C(N)=O` [[N^a MeTyr^1, Lys^8, Ala^15, Nle^27, Asn^28]-hGRF(1-29)-NH2] (H-[NMeY]ADAIFTKSYRKVLAQLSARKLLQDI[Nle]NR-NH2) had a Comparison % of 556%. Compound `CCCC[C@H](NC(=O)[C@@H](NC(=O)[C@H](CC(=O)O)NC(=O)[C@H](CCC(N)=O)NC(=O)[C@H](CC(C)C)NC(=O)[C@H](CC(C)C)NC(=O)[C@H](CCCCN)NC(=O)[C@H](CCCNC(=N)N)NC(=O)[C@H](C)NC(=O)[C@H](CO)NC(=O)[C@H](CC(C)C)NC(=O)[C@H](CCC(N)=O)NC(=O)[C@H](C)NC(=O)[C@H](CC(C)C)NC(=O)[C@@H](NC(=O)[C@H](CCCCN)NC(=O)[C@H](CCCNC(=N)N)NC(=O)[C@H](Cc1ccc(O)cc1)NC(=O)[C@H](CO)NC(=O)[C@H](CC(=O)O)NC(=O)[C@@H](NC(=O)[C@H](Cc1ccccc1)NC(=O)[C@@H](NC(=O)[C@H](C)NC(=O)[C@H](CC(=O)O)NC(=O)[C@H](C)NC(=O)[C@H](Cc1ccc(O)cc1)NC)[C@@H](C)CC)[C@@H](C)O)C(C)C)[C@@H](C)CC)C(=O)N[C@@H](CC(N)=O)C(=O)N[C@@H](CCCNC(=N)N)C(N)=O` [[N^a MeTyr^1, Asp^8, Ala^15, Nle^27, Asn^28]-hGRF(1-29)-NH2] (H-[NMeY]ADAIFTDSYRKVLAQLSARKLLQDI[Nle]NR-NH2) came in with a Comparison % of 192%.

Compound `CCCC[C@H](NC(=O)[C@@H](NC(=O)[C@H](CC(=O)O)NC(=O)[C@H](CCC(N)=O)NC(=O)[C@H](CC(C)C)NC(=O)[C@H](CC(C)C)NC(=O)[C@@H](CCCCN)NC(=O)[C@H](CCCNC(=N)N)NC(=O)[C@H](C)NC(=O)[C@H](CO)NC(=O)[C@H](CC(C)C)NC(=O)[C@H](CCC(N)=O)NC(=O)CNC(=O)[C@H](CC(C)C)NC(=O)[C@@H](NC(=O)[C@H](CCCCN)NC(=O)[C@H](CCCNC(=N)N)NC(=O)[C@@H](Cc1ccc(O)cc1)NC(=O)[C@H](CO)NC(=O)[C@H](CC(N)=O)NC(=O)[C@@H](NC(=O)[C@H](Cc1ccccc1)NC(=O)[C@@H](NC(=O)[C@H](C)NC(=O)[C@H](CC(=O)O)NC(=O)[C@H](C)NC(=O)[C@H](Cc1ccc(O)cc1)NC)[C@@H](C)CC)[C@@H](C)O)C(C)C)[C@@H](C)CC)C(=O)N[C@@H](CO)C(=O)N[C@@H](CCCNC(=N)N)C(N)=O` [[N^a MeTyr^1, D-Tyr^10, D-Lys^21, Nle^27]-hGRF(1-29)-NH2] registered a Comparison % of 40%. For `CCCC[C@H](NC(=O)[C@@H](NC(=O)[C@H](CC(=O)O)NC(=O)[C@H](CCC(N)=O)NC(=O)[C@H](CC(C)C)NC(=O)[C@H](CC(C)C)NC(=O)[C@@H](CCCCN)NC(=O)[C@H](CCCNC(=N)N)NC(=O)[C@H](C)NC(=O)[C@H](CO)NC(=O)[C@H](CC(C)C)NC(=O)[C@H](CCC(N)=O)NC(=O)CNC(=O)[C@H](CC(C)C)NC(=O)[C@@H](NC(=O)[C@H](CCCCN)NC(=O)[C@H](CCCNC(=N)N)NC(=O)[C@H](Cc1ccc(O)cc1)NC(=O)[C@H](CO)NC(=O)[C@H](CC(N)=O)NC(=O)[C@@H](NC(=O)[C@H](Cc1ccccc1)NC(=O)[C@@H](NC(=O)[C@H](C)NC(=O)[C@H](CC(=O)O)NC(=O)[C@H](C)NC(=O)[C@H](Cc1ccc(O)cc1)NC)[C@@H](C)CC)[C@@H](C)O)C(C)C)[C@@H](C)CC)C(=O)N[C@@H](CO)C(=O)N[C@@H](CCCNC(=N)N)C(N)=O` [[N^a MeTyr^1, D-Lys^21, Nle^27]-hGRF(1-29)-NH] the value was 172%; for “hGRF(1-40)-OH (YADAIFTNSYRKVLGQLSARKLLQDIMSRQQGESNQERGA-OH; UniProt P01286 32-71, looked up, fragment) [synthetic human pancreatic (tumor) GH releasing factor 1-40 free acid, used as standard in the assays, reference compound]”, 100%.
